{"source": "paper PMC7002685", "about": "“Inhibition of vascular calcification by inositol phosphates derivatized with ethylene glycol oligomers” (Nature Communications, 2020)", "key": {"[1]": {"target": "T1, Adrenergic β1 (Homo sapiens, UniProt P08588)", "T1 construct": "purchased Eurofins Panlabs Discovery Services Taiwan, Ltd", "T1 sequence (P08588 whole entry)": "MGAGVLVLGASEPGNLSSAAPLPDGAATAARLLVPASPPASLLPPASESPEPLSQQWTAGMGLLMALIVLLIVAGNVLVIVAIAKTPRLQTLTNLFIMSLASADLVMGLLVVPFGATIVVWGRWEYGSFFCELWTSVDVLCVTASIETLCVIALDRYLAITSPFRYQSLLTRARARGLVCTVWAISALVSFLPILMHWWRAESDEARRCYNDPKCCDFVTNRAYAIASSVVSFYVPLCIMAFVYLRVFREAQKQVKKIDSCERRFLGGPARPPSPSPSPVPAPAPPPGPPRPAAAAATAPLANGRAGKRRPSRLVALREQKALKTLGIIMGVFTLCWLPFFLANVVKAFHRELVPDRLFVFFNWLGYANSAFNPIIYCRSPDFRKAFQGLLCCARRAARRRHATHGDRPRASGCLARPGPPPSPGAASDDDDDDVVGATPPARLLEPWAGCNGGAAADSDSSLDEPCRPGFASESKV", "assay": "Off-target 204010", "format": "binding", "procedure": "(§1) The potential off-target activity of 10 µM (OEG2)2-IP4 was assessed against a panel of 87 enzymes, receptors, or ion channels that are used in standard safety pharmacology screens.\n(§2) 3.2. Off-target screening assay\n(§3) The experiments were conducted by a contract research organization (Eurofins Panlabs Discovery Services Taiwan, Ltd.) and details on the respective assays can be retrieved via the catalog number provided in Supplementary Table 11 from the company’s webpage\n(§4) (https://www.eurofinsdiscoveryservices.com/). […]\n(§5) At sacrifice the left tibia of animals of the rat model with dietary adenine/high-phosphate-induced uremia and VC was collected, fixed with 70% v/v EtOH and embedded in methyl methacrylate. The trabecular bone compartment is known to be the most metabolic active i.e. actively re-structured bone compartment in CKD. Therefore, histomorphometric and micro-computed tomography (µCT) analysis of bone was performed on the trabecular compartment. Tibial sections were Goldner-stained for histomorphometric analysis of the proximal metaphysis using the AxioVision Release 4.5 software, as […]\n(§6) described previously5. […]"}, "[2]": {"target": "T2, ATPase, Na+/K+, Heart, Pig (Sus scrofa, UniProt P05024)", "T2 construct": "purchased Eurofins Panlabs Discovery Services Taiwan, Ltd", "assay": "Off-target 107710", "format": "biochemical", "procedure": "as §1, §2\n(§7) The experiments were conducted by a contract research organization (Eurofins Panlabs Discovery\n(§8) Services Taiwan, Ltd.) and details on the respective assays can be retrieved via the catalog number\n(§9) provided in Supplementary Table 11 from the company’s webpage\nas §4"}, "[3]": {"target": "T3, Protein Tyrosine Kinase, Insulin Receptor (Homo sapiens, UniProt P06213)", "T3 construct": "purchased Eurofins Panlabs Discovery Services Taiwan, Ltd", "T3 sequence (P06213 28-1382)": "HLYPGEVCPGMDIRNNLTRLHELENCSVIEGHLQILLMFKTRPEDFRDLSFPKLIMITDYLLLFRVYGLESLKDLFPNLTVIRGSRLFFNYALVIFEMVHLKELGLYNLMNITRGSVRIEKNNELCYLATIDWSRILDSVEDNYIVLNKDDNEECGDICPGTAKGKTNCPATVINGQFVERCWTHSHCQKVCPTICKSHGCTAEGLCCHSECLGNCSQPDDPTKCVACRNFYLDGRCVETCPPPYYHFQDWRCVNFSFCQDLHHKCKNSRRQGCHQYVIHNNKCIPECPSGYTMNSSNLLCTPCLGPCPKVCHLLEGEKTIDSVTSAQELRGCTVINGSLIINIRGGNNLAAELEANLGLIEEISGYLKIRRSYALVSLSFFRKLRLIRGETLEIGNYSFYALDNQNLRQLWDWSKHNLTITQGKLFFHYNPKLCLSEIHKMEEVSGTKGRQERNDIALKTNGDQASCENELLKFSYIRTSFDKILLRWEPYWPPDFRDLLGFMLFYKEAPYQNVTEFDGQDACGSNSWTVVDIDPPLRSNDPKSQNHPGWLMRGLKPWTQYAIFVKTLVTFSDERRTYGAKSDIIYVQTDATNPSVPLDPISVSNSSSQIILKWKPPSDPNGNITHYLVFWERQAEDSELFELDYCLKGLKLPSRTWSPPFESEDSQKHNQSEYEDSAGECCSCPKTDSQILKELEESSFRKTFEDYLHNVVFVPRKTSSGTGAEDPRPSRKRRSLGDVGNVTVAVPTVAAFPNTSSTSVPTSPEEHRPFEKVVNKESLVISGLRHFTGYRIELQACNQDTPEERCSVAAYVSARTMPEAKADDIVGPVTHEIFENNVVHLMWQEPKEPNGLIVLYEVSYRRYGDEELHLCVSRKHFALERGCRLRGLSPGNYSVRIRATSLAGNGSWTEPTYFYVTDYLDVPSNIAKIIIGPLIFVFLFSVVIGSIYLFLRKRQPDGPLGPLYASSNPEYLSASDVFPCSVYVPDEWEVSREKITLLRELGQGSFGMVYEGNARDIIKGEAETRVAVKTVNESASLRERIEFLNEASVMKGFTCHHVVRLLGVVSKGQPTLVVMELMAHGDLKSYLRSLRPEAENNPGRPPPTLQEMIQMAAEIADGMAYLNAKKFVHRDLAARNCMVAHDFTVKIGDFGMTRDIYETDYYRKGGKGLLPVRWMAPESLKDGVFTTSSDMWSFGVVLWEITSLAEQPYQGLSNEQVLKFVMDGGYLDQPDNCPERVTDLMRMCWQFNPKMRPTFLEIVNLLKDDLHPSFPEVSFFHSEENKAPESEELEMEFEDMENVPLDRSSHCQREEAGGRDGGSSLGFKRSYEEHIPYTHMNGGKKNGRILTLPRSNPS", "assay": "Off-target 174990", "format": "biochemical", "procedure": "as §1, §2, §3, §4, §5, §6"}, "[4]": {"test_system": "TNFα release from THP-1-derived macrophages", "assay": "TNFα in macrophage supernatants after CPP2 and compounds", "format": "cell-based, human", "conditions": "for TNFα concentration in macrophage supernatants: 24 h, unit not given", "procedure": "Macrophage accumulation and inflammation coincide with the initial phase of calcification. To this end, VSMCs and THP-1-derived macrophages were exposed to CPP2-supplemented medium. CPP2 prepared from human serum as described previously[61] (Supplementary Figs. 6 and 7), induced a pronounced VSMC monolayer calcification after 48 h, which was decreased by (OEG2)2-IP4 in a dose-dependent fashion, and the effect became significant at 10 µM (Fig. 3e). […] Both H2O2 (proxy for oxidative stress) and tumor necrosis factor-alpha (TNF-α) (proxy for inflammatory response) levels were assayed in the VSMC culture supernatants subsequent to CPP2 treatment with and without compounds[30]. However, no increase in H2O2 nor TNF-α compared to control could be detected in either assay. For the CPP-induced VSMC calcification assay (Fig. 3e) a roughly 10-fold higher concentration of (OEG2)2-IP4 was necessary to achieve similar activity as in the CaP-induced VSMC calcification assay (Fig. 3b). […] In the CaP assay, low inhibitor concentration may be sufficient to inhibit crystal nucleation, whereas for the CPP assay higher inhibitor concentrations may be needed to achieve sufficient particle stabilization by chemisorption of inhibitor onto CPPs. Similar results have been reported for hydrogen sulfide in the context of VC[62],[64]. […] An increase in the TNFα levels in the cell culture supernatants was not observed for (OEG2)2-IP4 with (Fig. 3h) and without (Supplementary Fig. 10) combined CPP2 treatment.\n(§10) THP-1 cells were plated at a density of 200,000 cells/well in a 24-well plate, differentiated as stated above, and subsequently treated with or without CPP2 (50 μg Ca/mL) in complete medium with or without test compounds (3, 10, 30, 100 μM) for 24 h at 37 °C, 5% CO2.\n(§11) Human TNF-α was assayed in cell culture supernatants using commercial multiplex immunoassay kits (U-Plex of TNF-α (custom-made multiplex plate) and Human TNF- Kit (K151QWD-1), both from MesoScaleDiscovery, Rockville, MD, USA), and corrected for total protein content using the Micro BCA^TM Protein Assay Kit."}, "[5]": {"target": "T4, Neuropeptide Y Y1 (Homo sapiens, UniProt P25929)", "T4 construct": "purchased Eurofins Panlabs Discovery Services Taiwan, Ltd", "T4 sequence (P25929 whole entry)": "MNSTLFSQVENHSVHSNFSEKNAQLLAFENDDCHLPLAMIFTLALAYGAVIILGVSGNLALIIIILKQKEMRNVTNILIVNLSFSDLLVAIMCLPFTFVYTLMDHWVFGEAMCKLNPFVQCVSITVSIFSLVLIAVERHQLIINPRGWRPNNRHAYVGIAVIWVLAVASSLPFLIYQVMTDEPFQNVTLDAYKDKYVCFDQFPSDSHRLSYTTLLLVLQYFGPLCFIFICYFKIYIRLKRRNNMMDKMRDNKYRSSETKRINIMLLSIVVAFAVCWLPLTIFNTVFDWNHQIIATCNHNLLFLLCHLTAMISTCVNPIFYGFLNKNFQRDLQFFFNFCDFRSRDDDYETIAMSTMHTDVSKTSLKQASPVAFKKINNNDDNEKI", "assay": "Off-target 257010", "format": "binding", "procedure": "as §1, §2, §7, §8, §9, §4"}, "[6]": {"test_system": "Glutamate, AMPA", "assay": "Off-target 232600", "format": "binding, Rat", "conditions": "10 µM", "procedure": "as §1, §2, §3, §4, §5, §6"}, "[7]": {"test_system": "Transporter, Adenosine", "assay": "Off-target 202000", "format": "binding, Guinea pig", "conditions": "10 µM", "procedure": "as §1, §2, §7, §8, §9, §4"}, "[8]": {"target": "T5, Dopamine D1 (Homo sapiens, UniProt P21728)", "T5 construct": "purchased Eurofins Panlabs Discovery Services Taiwan, Ltd", "T5 sequence (P21728 whole entry)": "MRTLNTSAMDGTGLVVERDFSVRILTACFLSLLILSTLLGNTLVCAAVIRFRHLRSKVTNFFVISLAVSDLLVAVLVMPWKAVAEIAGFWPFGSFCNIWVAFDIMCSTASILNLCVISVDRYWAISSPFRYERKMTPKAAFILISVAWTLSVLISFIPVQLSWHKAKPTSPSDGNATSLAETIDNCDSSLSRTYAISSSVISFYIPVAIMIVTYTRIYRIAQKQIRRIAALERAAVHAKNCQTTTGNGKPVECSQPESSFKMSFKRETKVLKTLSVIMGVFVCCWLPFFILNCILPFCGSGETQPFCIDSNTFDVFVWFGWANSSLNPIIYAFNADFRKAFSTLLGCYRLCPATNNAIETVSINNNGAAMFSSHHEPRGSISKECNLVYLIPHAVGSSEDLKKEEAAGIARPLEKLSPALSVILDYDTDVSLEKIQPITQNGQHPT", "assay": "Off-target 219500 (D1)", "format": "binding", "procedure": "as §1, §2, §7, §8, §9, §4"}, "[9]": {"test_system": "GABAA, Flunitrazepam, Central", "assay": "Off-target 226600", "format": "binding, Rat", "conditions": "10 µM", "procedure": "as §1, §2, §7, §8, §9, §4"}, "[10]": {"target": "T6, Transporter, Norepinephrine (NET) (Homo sapiens, UniProt P23975)", "T6 construct": "purchased Eurofins Panlabs Discovery Services Taiwan, Ltd", "T6 sequence (P23975 whole entry)": "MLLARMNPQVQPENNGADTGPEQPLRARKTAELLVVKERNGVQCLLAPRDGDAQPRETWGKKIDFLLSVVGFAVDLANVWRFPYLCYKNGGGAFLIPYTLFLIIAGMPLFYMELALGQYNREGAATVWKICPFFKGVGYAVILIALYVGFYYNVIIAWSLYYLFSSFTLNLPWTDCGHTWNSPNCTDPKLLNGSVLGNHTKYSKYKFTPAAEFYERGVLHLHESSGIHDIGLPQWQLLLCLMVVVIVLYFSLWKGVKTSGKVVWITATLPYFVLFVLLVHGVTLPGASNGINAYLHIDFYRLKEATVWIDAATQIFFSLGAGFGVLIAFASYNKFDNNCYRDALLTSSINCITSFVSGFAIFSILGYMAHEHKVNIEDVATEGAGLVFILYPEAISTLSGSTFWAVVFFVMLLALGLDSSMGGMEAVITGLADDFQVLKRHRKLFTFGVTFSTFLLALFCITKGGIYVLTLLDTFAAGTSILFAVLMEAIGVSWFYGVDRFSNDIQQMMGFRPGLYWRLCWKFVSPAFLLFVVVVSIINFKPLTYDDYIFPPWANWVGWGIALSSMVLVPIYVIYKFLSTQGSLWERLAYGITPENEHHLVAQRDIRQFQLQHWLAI", "assay": "Off-target 204410", "format": "binding", "procedure": "as §1, §2, §3, §4, §5, §6"}, "[11]": {"target": "T7, Muscarinic M2 (Homo sapiens, UniProt P08172)", "T7 construct": "purchased Eurofins Panlabs Discovery Services Taiwan, Ltd", "T7 sequence (P08172 whole entry)": "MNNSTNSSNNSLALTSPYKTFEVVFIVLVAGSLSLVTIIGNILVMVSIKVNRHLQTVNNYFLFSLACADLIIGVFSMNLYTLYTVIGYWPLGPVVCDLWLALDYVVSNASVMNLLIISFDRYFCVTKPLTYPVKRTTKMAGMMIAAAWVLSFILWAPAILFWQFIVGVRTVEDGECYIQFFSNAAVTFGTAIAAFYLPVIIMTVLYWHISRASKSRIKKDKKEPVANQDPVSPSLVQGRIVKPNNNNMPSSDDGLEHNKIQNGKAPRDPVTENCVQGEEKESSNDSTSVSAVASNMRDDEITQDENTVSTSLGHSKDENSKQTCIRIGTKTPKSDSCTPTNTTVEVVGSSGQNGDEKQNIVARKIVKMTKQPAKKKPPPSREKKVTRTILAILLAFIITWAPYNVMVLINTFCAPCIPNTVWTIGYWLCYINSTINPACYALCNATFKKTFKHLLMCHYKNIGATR", "assay": "Off-target 252710", "format": "binding", "procedure": "as §1, §2, §3, §4, §5, §6"}, "[12]": {"test_system": "Protein Serine/Threonine Kinase, PKC, Non-selective", "assay": "Off-target 178010", "format": "biochemical, Rat", "conditions": "10 µM", "procedure": "as §1, §2, §3, §4, §5, §6"}, "[13]": {"target": "T8, Leukotriene, Cysteinyl CysLT1 (Homo sapiens, UniProt Q9Y271)", "T8 construct": "purchased Eurofins Panlabs Discovery Services Taiwan, Ltd", "T8 sequence (Q9Y271 whole entry)": "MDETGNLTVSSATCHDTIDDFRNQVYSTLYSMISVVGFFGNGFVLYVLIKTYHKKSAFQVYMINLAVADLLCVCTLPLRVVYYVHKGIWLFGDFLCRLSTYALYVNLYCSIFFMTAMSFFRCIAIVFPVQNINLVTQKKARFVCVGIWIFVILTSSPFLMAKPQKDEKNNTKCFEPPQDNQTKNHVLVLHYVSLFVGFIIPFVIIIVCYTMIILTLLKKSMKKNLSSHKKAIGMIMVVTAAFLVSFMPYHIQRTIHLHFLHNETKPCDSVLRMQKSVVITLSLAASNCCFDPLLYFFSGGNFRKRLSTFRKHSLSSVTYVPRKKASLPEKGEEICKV", "assay": "Off-target 250460", "format": "binding", "procedure": "as §1, §2, §7, §8, §9, §4"}, "[14]": {"target": "T9, Cholecystokinin CCK1 (CCKA) (Homo sapiens, UniProt P32238)", "T9 construct": "purchased Eurofins Panlabs Discovery Services Taiwan, Ltd", "T9 sequence (P32238 whole entry)": "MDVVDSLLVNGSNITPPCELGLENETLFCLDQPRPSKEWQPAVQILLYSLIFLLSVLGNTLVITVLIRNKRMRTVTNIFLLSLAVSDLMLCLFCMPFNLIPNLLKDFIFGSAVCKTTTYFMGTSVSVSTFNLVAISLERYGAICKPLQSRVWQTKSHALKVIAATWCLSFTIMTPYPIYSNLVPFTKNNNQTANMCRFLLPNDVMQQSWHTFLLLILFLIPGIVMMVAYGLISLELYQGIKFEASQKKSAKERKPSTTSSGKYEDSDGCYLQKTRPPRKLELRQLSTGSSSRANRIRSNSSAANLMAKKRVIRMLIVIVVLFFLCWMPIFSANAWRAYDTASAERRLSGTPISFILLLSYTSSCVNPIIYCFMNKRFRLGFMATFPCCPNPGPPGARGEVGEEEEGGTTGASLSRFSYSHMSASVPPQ", "assay": "Off-target 218030", "format": "binding", "procedure": "as §1, §2, §3, §4, §5, §6"}, "[15]": {"test_system": "TNFα release from THP-1-derived macrophages", "assay": "TNFα release from macrophages, compound without CPP2", "format": "cell-based, human", "conditions": "without combined CPP2 treatment", "procedure": "as §10\nas §11, with “Kit. […]” for “Kit.”\nData are expressed as\nmean ± s.d. (n = 3 independent experiments)."}}, "note": "“And” between values parts separate entries of the source, which are not always exact repeats. Equal entries are not always repeated."}
{"molecule": "COCCOCCO[C@@H]1[C@@H](OP(=O)(O)O)[C@H](OCCOCCOC)[C@@H](OP(=O)(O)O)[C@@H](OP(=O)(O)O)[C@H]1OP(=O)(O)O", "note": "[(OEG2)2-IP4, 4,6-Di-O-(methoxy-diethyleneglycol)-myo-inositol-1,2,3,5-tetrakis(phosphate)]", "values": [{"measurement": "inhibition at 10 µM", "setting": "[1]", "value": 2, "unit": "%"}, {"measurement": "inhibition at 10 µM", "setting": "[2]", "value": 6, "unit": "%"}, {"measurement": "inhibition at 10 µM", "setting": "[3]", "value": -22, "unit": "%"}, {"measurement": "TNFα concentration in macrophage supernatants", "setting": "[4]; 3 µM + CPP2 50 µg Ca/mL, replicates Fig. 3h", "value": "169.13 and 90.77 and 60.49"}, {"measurement": "TNFα concentration in macrophage supernatants", "setting": "[4]; 10 µM + CPP2 50 µg Ca/mL", "value": "111.79 and 105.92 and 63.72"}, {"measurement": "TNFα concentration in macrophage supernatants", "setting": "[4]; 30 µM + CPP2 50 µg Ca/mL", "value": "131.34 and 98.11 and 72.68"}, {"measurement": "increase in TNFα levels in supernatants", "setting": "[4]; with combined CPP2 treatment", "value": "not observed"}, {"measurement": "inhibition at 10 µM", "setting": "[5]", "value": -9, "unit": "%"}, {"measurement": "% Inhibition", "setting": "[6]", "value": 8, "unit": "%"}, {"measurement": "% Inhibition", "setting": "[7]", "value": -14, "unit": "%"}, {"measurement": "inhibition at 10 µM", "setting": "[8]", "value": -1, "unit": "%"}, {"measurement": "% Inhibition", "setting": "[9]", "value": -7, "unit": "%"}, {"measurement": "inhibition at 10 µM", "setting": "[10]", "value": 20, "unit": "%"}, {"measurement": "inhibition at 10 µM", "setting": "[11]", "value": 4, "unit": "%"}, {"measurement": "% Inhibition", "setting": "[12]", "value": -18, "unit": "%"}, {"measurement": "inhibition at 10 µM", "setting": "[13]", "value": 0, "unit": "%"}, {"measurement": "inhibition at 10 µM", "setting": "[14]", "value": 6, "unit": "%"}, {"measurement": "increase in TNFα levels in supernatants", "setting": "[15]", "value": "not observed"}]}
